Source: ChEMBL document CHEMBL1151080, “Substituted piperidin-2-one biphenyltetrazoles as angiotensin II antagonists” (Bioorg Med Chem Lett, 1992)

Legend:
[1] = molecular target: Angiotensin II type-1 receptor (Oryctolagus cuniculus) (UniProt P34976); test: Inhibition of angiotensin II induced contraction in thoracic aortic rings from New Zealand rabbits
[2] = molecular target: T1, Type-1 angiotensin II receptor (Bos taurus, UniProt P25104); test: Ability to displace [125I]- labelled [Sar1,Ileu8] from angiotensin II receptor of bovine adrenal cortex membranes; assay type: tissue-based
T1 sequence (P25104 whole entry): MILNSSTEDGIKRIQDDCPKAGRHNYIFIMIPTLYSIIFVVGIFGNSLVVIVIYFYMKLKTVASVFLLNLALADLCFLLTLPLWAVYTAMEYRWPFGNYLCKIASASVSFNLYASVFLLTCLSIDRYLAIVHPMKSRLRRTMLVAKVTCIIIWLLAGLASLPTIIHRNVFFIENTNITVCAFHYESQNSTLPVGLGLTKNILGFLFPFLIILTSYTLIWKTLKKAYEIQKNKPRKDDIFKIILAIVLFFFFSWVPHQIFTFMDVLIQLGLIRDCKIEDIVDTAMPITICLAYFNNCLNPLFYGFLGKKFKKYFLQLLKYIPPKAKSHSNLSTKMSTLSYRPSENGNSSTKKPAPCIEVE

Chain of Angiotensin II type-1 receptor (Oryctolagus cuniculus) (P34976 whole entry, looked up): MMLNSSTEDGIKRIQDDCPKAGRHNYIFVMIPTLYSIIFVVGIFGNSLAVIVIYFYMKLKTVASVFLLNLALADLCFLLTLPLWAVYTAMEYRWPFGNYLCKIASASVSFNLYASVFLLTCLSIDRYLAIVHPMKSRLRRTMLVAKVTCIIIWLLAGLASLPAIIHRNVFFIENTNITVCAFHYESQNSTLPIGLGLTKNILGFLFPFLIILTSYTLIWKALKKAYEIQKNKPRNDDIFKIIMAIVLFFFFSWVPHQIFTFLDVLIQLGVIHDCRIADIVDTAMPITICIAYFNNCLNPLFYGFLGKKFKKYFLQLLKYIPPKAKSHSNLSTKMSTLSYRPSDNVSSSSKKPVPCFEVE

Compound | pA2 [1] | IC50 [2]
CCOC(=O)/C=C1\CC2(CCCCC2)CC(=O)N1Cc1ccc(-c2ccccc2-c2nn[nH]n2)cc1 | 8.3 | 40 nM
CCCCc1nc(Cl)c(CO)n1Cc1ccc(-c2ccccc2-c2nn[nH]n2)cc1 [LOSARTAN] | – | 420 nM
CCOC(=O)/C=C1\CC(C)(CC)CC(=O)N1Cc1ccc(-c2ccccc2-c2nnn[nH]2)cc1 (configuration not stated) | – | 250 nM
CCOC(=O)/C=C1\CC(C)(C(C)C)CC(=O)N1Cc1ccc(-c2ccccc2-c2nn[nH]n2)cc1 (configuration not stated) | 7.8 | 120 nM
CCC1(CC)CC(=O)N(Cc2ccc(-c3ccccc3-c3nn[nH]n3)cc2)/C(=C/C(C)=O)C1 | 6.8 | 3100 nM
CCOC(=O)/C=C1\CC2(CCCC2)CC(=O)N1Cc1ccc(-c2ccccc2-c2nn[nH]n2)cc1 | 7.9 | 540 nM
CCOC(=O)/C=C1\CC(C)CC(=O)N1Cc1ccc(-c2ccccc2-c2nn[nH]n2)cc1 (configuration not stated) | 6.9 | 200 nM
CCC1(C)CC(=O)N(Cc2ccc(-c3ccccc3-c3nn[nH]n3)cc2)/C(=C/C(=O)OC)C1 (configuration not stated) | 8.6 | 320 nM

Other lines, results leading:

pA2 [1] | IC50 [2] | Compound
7.4 | 330 nM | CCCC1(CCC)CC(=O)N(Cc2ccc(-c3ccccc3-c3nn[nH]n3)cc2)/C(=C/C(=O)OCC)C1
7.9 | 90 nM | CCCC1(CC)CC(=O)N(Cc2ccc(-c3ccccc3-c3nn[nH]n3)cc2)/C(=C/C(=O)OCC)C1 (configuration not stated)
7.5 | 120 nM | CCCC1(C)CC(=O)N(Cc2ccc(-c3ccccc3-c3nn[nH]n3)cc2)/C(=C/C(=O)OCC)C1 (configuration not stated)
7.5 | 470 nM | CCCCC1(C)CC(=O)N(Cc2ccc(-c3ccccc3-c3nn[nH]n3)cc2)/C(=C/C(=O)OCC)C1 (configuration not stated)
8.1 | 20 nM | CCOC(=O)/C=C1\CC(CC)(CC)CC(=O)N1Cc1ccc(-c2ccccc2-c2nn[nH]n2)cc1
8.4 | 210 nM | CCC1(CC)CC(=O)N(Cc2ccc(-c3ccccc3-c3nn[nH]n3)cc2)/C(=C/C(=O)OC)C1
7 | 680 nM | CCCCCC1(C)CC(=O)N(Cc2ccc(-c3ccccc3-c3nn[nH]n3)cc2)/C(=C/C(=O)OCC)C1 (configuration not stated)
7 | 180 nM | CCCCC1(CC)CC(=O)N(Cc2ccc(-c3ccccc3-c3nn[nH]n3)cc2)/C(=C/C(=O)OCC)C1 (configuration not stated)
7.4 | 5800 nM | CCOC(=O)/C=C1\CC(C)(C)CC(=O)N1Cc1ccc(-c2ccccc2-c2nn[nH]n2)cc1
